Laboratory results taken from patent US20090298707A1, “SPARSE MATRIX SYSTEM AND METHOD FOR IDENTIFICATION OF SPECIFIC LIGANDS OR TARGETS” (priority 2008, published 2009).
“Also recorded” adds a separate entry of the source.

What was measured:
M. luteus MS2 = assay: Pulldown binding assay, Langmuir isotherm fit, M. luteus; design: species or system Micrococcus luteus; conditions: for Langmuir Affinity (Ka): association constant from Langmuir isotherm fit; for Monolayer Concentration (N): maximum surface concentration from Langmuir fit
Source text: (§1) To investigate whether the changes in the observed level of binding were due to changes in the affinities or avidities of the refined peptides for cell surfaces, binding curves were generated for selected peptides and fit to the Langmuir isotherm (where possible), the simplest model describing binding to surfaces (peptides showing either complex or nonspecific binding isotherms were excluded from this analysis).
(§2) Measurements were taken of the absorbance of the labeled peptide at 488 nm (the peak absorbance of the fluorescein label) before and after exposure to the cells. The amount of peptide bound was calculated by comparing the ratio of the final (Af) and initial (Ai) absorbances to the initial concentration (C0)[Cbound=C0(1−(Af/Ai))]. Bacterial surface area per sample was calculated using a stage micrometer to determine the average cell diameter for each species (1.0+/−0.1 μm for S. aureus AM1, 2.7+/−0.1 μm for M. luteus MS2), treating individual cells as discrete spheres. Average cell concentration per unit OD600 was calculated using a hemocytometer.
(§3) Plots were then generated of the amount of peptide bound per m^2 of bacterial surface area vs. the concentration of unbound peptide at equilibrium. Where possible, the resulting isotherms were fit to the Langmuir isotherm (P/A=(KaNCeq)/(1+KaCeq), where P/A represents the molar amount of peptide bound per unit of bacterial surface area, Ka is the association constant of the peptide with the bacterial surface (L/Mol), N is the maximum surface concentration (mol/m^2), and Ceq is the molar concentration of unbound peptide at equilibrium) (Calis et al. (1995) Pharm Res 12(7): 1072-1076). Data plots and curvefits were obtained using Kaleidagraph (Synergy Software).

[1] = test system: immobilized S. aureus cells; assay: Fluorescence microscopy binding of labeled peptides to immobilized bacteria, S. aureus; design: species or system Staphylococcus aureus; conditions: for Binding to S. aureus (fluorescent staining): 25 μM fluorescein-labeled peptide, 10 minutes, immobilized cells
Description: (§4) Peptide samples were prepared at a concentration of 25 μM for screening against a variety of organisms by exposing immobilized bacteria to labeled peptides. For bacterial cell binding assays, cells were grown overnight, washed, and immobilized in a polylysine-coated 96-well plate. Fluorescein-labeled peptide samples were applied to immobilized bacteria, incubated for 10 minutes and washed extensively to remove unbound peptide. Samples were visualized by fluorescence microscopy. For each peptide, both brightfield and fluorescence images were collected, and camera and microscope settings were not altered between images. The locations of cells and background regions were determined using the brightfield images; those regions were then selected in the fluorescence images for quantitation of pixel values for determination of relative fluorescence intensities (represented as bacterial fluorescence/background fluorescence) using the GNU Image Manipulation Program (The GIMP, see, e.g., www.gimp.org).
The following bacterial species and strains were used: Lactobacillus casei (strain), Escherichia coli (W3110), Enterococcus faecium (strain), Streptococcus mutans (UA140), Streptococcus mitis (ATCC 903), Streptococcus gordonii (NY101), Pseudomonas aeruginosa(strain K), Klebsiella pneumoniae (KAY2026), Myxococcus xanthus (Strains DK1622, wildtype, and difA, exopolysaccharide deficient^21), Micrococcus luteus (strain MS2, a community isolate), Staphylococcus epidermidis (strain), and Staphylococcus aureus(strains, and AM1, a methicillin/oxacillin-resistant community isolate).
For isolation of community-acquired S. aureus and M. luteus strains (strains MS2 and AM1), swabs were collected from the nostrils of several volunteers and streaked on Brain-Heart Infusion (BHI) agar and incubated at 37° C. overnight. Yellow colonies were isolated and typed (Microbial ID, Inc., Newark, Del.). Antibiotic resistance was assayed by plating on BHI in the presence of various antibiotics. Commercially available antibiotic susceptibility test disks were used to assay for oxacillin resistance (BD Biosciences), according to the manufacturer's instructions. Due to the difficulty of obtaining methicillin, oxacillin resistance was used as a proxy for methicillin resistance in isolated strains.^22
The peptides comprising these two refined libraries were synthesized, labeled, and screened against immobilized S. aureus cells exactly as for the original pilot library.
(§5) To examine the specificities of the peptides identified in this experiment, a diverse panel of various strains of bacteria was assembled, consisting of Lactobacillus casei, Escherichia coli, Enterococcus faecalis, Streptococcus mutans, Streptococcus mitis, Streptococcus gordonii, Pseudomonas aeruginosa, Klebsiella pneumoniae, Micrococcus luteus (strain MS2), Staphylococcus epidermidis, and two strains of Staphylococcus aureus: a methicillin/oxacillin-sensitive community isolate and our methicillin/oxacillin-resistant community isolate of (strain AM1). Peptides 3C and 4D from the original pilot library were screened for binding against these bacteria by fluorescence microscopy, and images were analyzed as before.

M. luteus = assay: Fluorescence microscopy binding of labeled peptides to immobilized bacteria, M. luteus; design: species or system Micrococcus luteus; conditions: 25 μM fluorescein-labeled peptide, immobilized cells
Description: as §4, with “www.gimp.org). […]” for “www.gimp.org).”
as §5

[2] = test system: diverse panel of various strains of bacteria; assay: Specificity screen by fluorescence microscopy against a bacterial panel; type: binding; conditions: bacteria other than S. aureus and M. luteus
Description: as §4, with “www.gimp.org). […]” for “www.gimp.org).”
as §5

[3] = test system: Candida albicans cells (strain 4741); assay: Pilot library binding to Candida albicans cells; conditions: fluorescence image
Description: as §4
(§6) The use of this technology is not limited to bacterial surfaces.

[4] = test system: Chinese Hamster Ovary (CHO) cells; assay: Pilot library binding to CHO cells; conditions: fluorescence image
Description: as §4, §6

S. aureus AM1 = assay: Pulldown binding assay, Langmuir isotherm fit, S. aureus; design: species or system Staphylococcus aureus; conditions: for Langmuir Affinity (Ka): association constant from Langmuir isotherm fit, fluorescein-labeled peptide 0-100 μM; for Monolayer Concentration (N): maximum surface concentration from Langmuir fit
Source text: as §1, §2, §3

Substance	Langmuir Affinity (Ka) (M. luteus MS2)	Monolayer Concentration (N) (M. luteus MS2)	Binding to S. aureus (fluorescent staining) [1]	Binding to immobilized S. aureus relative to peptides of the original pilot library ([1]; refined libraries, fluorescence images)	Binding to M. luteus (fluorescent staining) (M. luteus)	Binding to the other bacteria of the panel [2]	Binding to C. albicans [3]	Binding to CHO cells [4]	Langmuir Affinity (Ka) (S. aureus AM1)	Monolayer Concentration (N) (S. aureus AM1)	Binding to S. aureus (fluorescent staining) ([1]; listed as Pilot Library C3)	Binding to S. aureus (fluorescent staining) ([1]; listed as Pilot Library D4)
In-plane refinement 1B: in-plane refined library peptide, SEQ ID NO:50 (IVSYVITQL; synthetic in-plane refinement library peptide B1)	2.4 ± 0.8 M^−1 × 10000	0.11 ± 0.02 Mol/m^2 × 0.0001	strongest binding	enhanced binding	strongest binding	no significant binding						
Pilot Library 3A: pilot library 9-mer, SEQ ID NO:11 (WWSYWWTQW; synthetic pilot library peptide A3)							binding	binding				
Pilot Library 3C: pilot library 9-mer, SEQ ID NO:23; became A1 of the in-plane matrix (SEQ ID NO:46) (LISYILTQL; synthetic pilot library peptide C3)	4 ± 1 M^−1 × 10000	0.12 ± 0.02 Mol/m^2 × 0.0001	Binding was clearly seen; also recorded: binds well		Binding was clearly seen; also recorded: binds well	significant levels of binding to several of the other bacteria tested; also recorded: significant binding to several strains			5.6 ± 0.9 M^−1 × 10000	0.31 ± 0.2 Mol/m^2 × 0.0001	some of the brightest unique staining	
Pilot Library 4D: pilot library 9-mer, SEQ ID NO:30; corner of the in-plane matrix (SEQ ID NO:61) (VAKDVAERV; synthetic pilot library peptide D4)	5 ± 2 M^−1 × 10000	0.16 ± 0.02 Mol/m^2 × 0.0001	Binding was clearly seen		Binding was clearly seen	significant levels of binding to several of the other bacteria tested; also recorded: significant binding to several strains			5 ± 3 M^−1 × 10000	0.12 ± 0.3 Mol/m^2 × 0.0001		some of the brightest unique staining
